Measurements reported in US11083725B2 (priority 2014, dated 2021).

System: NHBE cells
Assay: Biolog metabolic array: substrate use by NHBE cells with or without CA09 infection
Assay type: cell-based, human
Settings: for Substrate use, 590 nm absorbance normalized to zero hour, 1 hr: Biolog PMM2, 1 hr; for Substrate use, 590 nm absorbance normalized to zero hour, 5 hr: Biolog PMM2, 5 hr; for Substrate use, 590 nm absorbance normalized to zero hour, 7 hr: Biolog PMM2, 7 hr
[1] = Control (uninfected) NHBE cells
[2] = Virus (CA09-infected, MOI 1) NHBE cells
[3] = Virus: CA09-infected NHBE cells, MOI 1, Biolog PMM2
[4] = Virus (CA09, MOI 1) infected NHBE cells

For `CC(=O)CC(=O)O` [Acetoacetic Acid], the “590 nm absorbance normalized to zero hour (substrate use), 1 hr” value [1] was 1.24, the “590 nm absorbance normalized to zero hour (substrate use), 2 hr” value (shortened to “590 nm absorbance normalized … 2 hr”) [1] was 1.37 and the “590 nm absorbance normalized to zero hour (substrate use), 3 hr” value (“590 nm absorbance normalized … 3 hr” below) [1] was 2.22. The “590 nm absorbance normalized to zero hour (substrate use), 4 hr” value (from here on “590 nm absorbance normalized … 4 hr”) [1] was 2.13, the “590 nm absorbance normalized to zero hour (substrate use), 6 hr” value (shortened to “590 nm absorbance normalized … 6 hr”) [1] was 0.39 and the “590 nm absorbance normalized to zero hour (substrate use), 8 hr” value (“590 nm absorbance normalized … 8 hr” below) [1] was 1.52. The “590 nm absorbance normalized to zero hour (substrate use), 9 hr” value (from here on “590 nm absorbance normalized … 9 hr”) [1] was 1.66, the “590 nm absorbance normalized to zero hour (substrate use), 10 hr” value (shortened to “590 nm absorbance normalized … 10 hr”) [1] was 1.49 and the “590 nm absorbance normalized to zero hour (substrate use), 11 hr” value (“590 nm absorbance normalized … 11 hr” for short) [1] was 2.20. For the same molecule, the “Substrate use, 590 nm absorbance normalized to zero hour, 1 hr” value [1] was 1.24, the “Substrate use, 590 nm absorbance normalized to zero hour, 5 hr” value [1] was 2.15 and the “Substrate use, 590 nm absorbance normalized to zero hour, 7 hr” value [1] was 1.53. The “590 nm absorbance normalized to zero hour (substrate use), 1 hr” value [2] was 1.26, the “590 nm absorbance normalized … 2 hr” value [2] was 1.40 and the “590 nm absorbance normalized … 3 hr” value [2] was 1.48. For the same molecule, the “590 nm absorbance normalized … 4 hr” value [2] was 1.54, the “590 nm absorbance normalized to zero hour (substrate use), 5 hr” value [2] was 1.64 and the “590 nm absorbance normalized … 6 hr” value [2] was 1.67. The “590 nm absorbance normalized to zero hour (substrate use), 7 hr” value [2] was 1.71, the “590 nm absorbance normalized … 8 hr” value [2] was 1.74 and the “590 nm absorbance normalized … 9 hr” value [2] was 1.81. The “590 nm absorbance normalized … 10 hr” value [2] was 1.74, the “590 nm absorbance normalized … 11 hr” value [2] was 1.81 and the “590 nm absorbance normalized to zero hour (substrate use), 1 hr” value [3] was 1.26. The “590 nm absorbance normalized … 2 hr” value [3] was 1.40, the “590 nm absorbance normalized … 3 hr” value [3] was 1.48 and the “590 nm absorbance normalized … 4 hr” value [3] was 1.54. For the same molecule, the “590 nm absorbance normalized to zero hour (substrate use), 5 hr” value [3] was 1.64, the “590 nm absorbance normalized … 6 hr” value [3] was 1.67 and the “590 nm absorbance normalized to zero hour (substrate use), 7 hr” value [3] was 1.71. The “590 nm absorbance normalized … 8 hr” value [3] was 1.74, the “590 nm absorbance normalized … 9 hr” value [3] was 1.81 and the “590 nm absorbance normalized … 10 hr” value [3] was 1.74. For the same molecule, the “590 nm absorbance normalized … 11 hr” value [3] was 1.81.

In the case of `OC[C@H]1O[C@@H](O[C@@H]2[C@@H](CO)OC(O)(CO)[C@H]2O)[C@H](O)[C@@H](O)[C@H]1O` (mixture of isomers) [Lactulose], the “590 nm absorbance normalized to zero hour (substrate use), 1 hr” value [1] is reported as 1.71, the “590 nm absorbance normalized … 2 hr” value [1] is reported as 2.30 and the “590 nm absorbance normalized … 3 hr” value [1] is reported as 2.70. The “590 nm absorbance normalized … 4 hr” value [1] was 2.88, the “590 nm absorbance normalized … 6 hr” value [1] was 3.78 and the “590 nm absorbance normalized … 8 hr” value [1] was 4.04. For the same molecule, the “590 nm absorbance normalized … 9 hr” value [1] was 4.27, the “590 nm absorbance normalized … 10 hr” value [1] was 4.46 and the “590 nm absorbance normalized … 11 hr” value [1] was 5.14. The “Substrate use, 590 nm absorbance normalized to zero hour, 1 hr” value [1] was 1.71, the “Substrate use, 590 nm absorbance normalized to zero hour, 5 hr” value [1] was 3.40 and the “Substrate use, 590 nm absorbance normalized to zero hour, 7 hr” value [1] was 3.82. The “590 nm absorbance normalized to zero hour (substrate use), 1 hr” value [2] was 1.68, the “590 nm absorbance normalized … 2 hr” value [2] was 2.24 and the “590 nm absorbance normalized … 3 hr” value [2] was 2.56. The “590 nm absorbance normalized … 4 hr” value [2] was 2.71, the “590 nm absorbance normalized to zero hour (substrate use), 5 hr” value [2] was 3.13 and the “590 nm absorbance normalized … 6 hr” value [2] was 3.31. The “590 nm absorbance normalized to zero hour (substrate use), 7 hr” value [2] was 3.50, the “590 nm absorbance normalized … 8 hr” value [2] was 3.70 and the “590 nm absorbance normalized … 9 hr” value [2] was 4.05. For the same molecule, the “590 nm absorbance normalized … 10 hr” value [2] was 4.25, the “590 nm absorbance normalized … 11 hr” value [2] was 4.63 and the “590 nm absorbance normalized to zero hour (substrate use), 1 hr” value [3] was 1.68. The “590 nm absorbance normalized … 2 hr” value [3] was 2.24, the “590 nm absorbance normalized … 3 hr” value [3] was 2.56 and the “590 nm absorbance normalized … 4 hr” value [3] was 2.71. For the same molecule, the “590 nm absorbance normalized to zero hour (substrate use), 5 hr” value [3] was 3.13, the “590 nm absorbance normalized … 6 hr” value [3] was 3.31 and the “590 nm absorbance normalized to zero hour (substrate use), 7 hr” value [3] was 3.50. For the same molecule, the “590 nm absorbance normalized … 8 hr” value [3] was 3.70, the “590 nm absorbance normalized … 9 hr” value [3] was 4.05 and the “590 nm absorbance normalized … 10 hr” value [3] was 4.25. The “590 nm absorbance normalized … 11 hr” value [3] was 4.63.

In the case of `CC(=O)N[C@@H]1C(O)O[C@H](CO)[C@@H](O)[C@@H]1O` (stereo partly drawn) [N-Acetyl-D-Mannosamine], the “590 nm absorbance normalized to zero hour (substrate use), 1 hr” value [1] is reported as 0.90, the “590 nm absorbance normalized … 2 hr” value [1] is reported as 0.77 and the “590 nm absorbance normalized … 3 hr” value [1] is reported as 0.71. The “590 nm absorbance normalized … 4 hr” value [1] was 0.68, the “590 nm absorbance normalized … 6 hr” value [1] was 0.65 and the “590 nm absorbance normalized … 8 hr” value [1] was 0.63. For the same molecule, the “590 nm absorbance normalized … 9 hr” value [1] was 0.58, the “590 nm absorbance normalized … 10 hr” value [1] was 0.67 and the “590 nm absorbance normalized … 11 hr” value [1] was 0.66. For the same molecule, the “Substrate use, 590 nm absorbance normalized to zero hour, 1 hr” value [1] was 0.90, the “Substrate use, 590 nm absorbance normalized to zero hour, 5 hr” value [1] was 0.68 and the “Substrate use, 590 nm absorbance normalized to zero hour, 7 hr” value [1] was 0.61. The “Substrate use, 590 nm absorbance normalized to zero hour, 1 hr” value [4] was 1.40, the “Substrate use, 590 nm absorbance normalized to zero hour, 5 hr” value [4] was 2.60 and the “Substrate use, 590 nm absorbance normalized to zero hour, 7 hr” value [4] was 2.89. The “590 nm absorbance normalized to zero hour (substrate use), 1 hr” value [2] was 1.40, the “590 nm absorbance normalized … 2 hr” value [2] was 1.88 and the “590 nm absorbance normalized … 3 hr” value [2] was 2.13. For the same molecule, the “590 nm absorbance normalized … 4 hr” value [2] was 2.22, the “590 nm absorbance normalized … 6 hr” value [2] was 2.70 and the “590 nm absorbance normalized … 8 hr” value [2] was 3.09. The “590 nm absorbance normalized … 9 hr” value [2] was 3.29, the “590 nm absorbance normalized … 10 hr” value [2] was 3.34 and the “590 nm absorbance normalized … 11 hr” value [2] was 3.55.
